# Results from the Biogen ADME set (Fang et al. 2023).
# Conditions: for aqueous solubility: pH 6.8
MDR1-MDCK efflux ratio,"intrinsic clearance, human liver microsomes [mL/min/kg]","intrinsic clearance, rat liver microsomes [mL/min/kg]",aqueous solubility [µg/mL],"fraction unbound, human plasma","fraction unbound, rat plasma",SMILES
1.98,263,1350,22.5,,,O=C(CCn1cncn1)N(CC#Cc1ccccc1)C1CCCC1
0.557,90,280,30.4,,,Cc1ccccc1C(=O)Nc1nc(C)c(C)s1
0.789,7.77,35.6,43.7,,,Cc1nc(NCc2ccc(F)c(Cl)c2)n(C)n1
0.704,39.7,83.1,28.5,,,Cc1cc(N(C)C)nc(-n2ccnc2)n1
,≤ 4.74,≤ 10.7,,,,NCCc1cnn(Cc2ccccc2)c1
,72.7,349,54.4,,,O=C(CN1CCSC1=O)N1CCN(Cc2sc3ccccc3c2Cl)CC1
2.85,60.4,25.6,2.75,,,CC(C)(C)c1ccc(C(=O)Nc2cn3cc(-n4ccnc4)ccc3n2)cc1
106,5.41,88.5,,,,[2H]c1nc(C)nc([2H])c1-c1cc(NC[C@@H](C)c2cccc3c(C(=O)NC)ccnc23)ncn1
,,,11.8,,,CCC(Oc1ccccc1)C(=O)Nc1nc2ccccc2[nH]1 (stereo not given)
,356,557,,,,N#Cc1ccc(-c2cccc(CN)c2)s1
1.91,≤ 4.74,82,30.6,,,COc1c(C)cnc(CN(C)S(N)(=O)=O)c1C
0.617,633,4770,,,,Cc1ccc2nc(CN(C)Cc3cccc(Cl)c3Cl)cc(=O)n2c1
0.843,73.8,1080,,0.0168,0.0229,C[C@@H]1Cc2ccccc2N1C(=O)Cn1nc(-c2cccc3ncccc23)oc1=O
,7.6,17,,,,CCCCCCCCc1ccc(CCC(N)(CO)CO)cc1
0.675,≤ 4.74,≤ 10.7,,,,CC(=O)N1CC[C@H]2O[C@H]3c4ccc(O[C@@H]5O[C@H](CO)[C@@H](O[C@@H]6O[C@H](CO)[C@H](O)[C@H](O)[C@H]6O)[C@H](O)[C@H]5O)cc4OC(C)(C)[C@@H]3C[C@H]2C1
51.7,≤ 4.74,≤ 10.7,31.5,,,O=C(CC1CCCC1)NCc1nnc2n1CCC2
2.9,≤ 4.74,17.3,,,,CCOc1c2c(c(OCC)c3ccccc13)C(=O)N(c1ccc(CC(=O)NS(=O)(=O)c3ccccc3)cc1)C2
,,,0.39,,,COc1cc(OC)cc(C(=O)Nc2nc3c(s2)COc2ccccc2-3)c1
1.33,≤ 4.74,,,0.58,,NC1CCCC(C(=O)Nc2cccc(N3CCNC3=O)c2)C1 (stereo not given)

MDR1-MDCK efflux ratio,"intrinsic clearance, human liver microsomes [mL/min/kg]","intrinsic clearance, rat liver microsomes [mL/min/kg]",aqueous solubility [µg/mL],"fraction unbound, human plasma","fraction unbound, rat plasma",SMILES
,,,40.2,,,Cn1cc(-c2nc(C(F)(F)F)c[nH]2)cn1
0.825,13.8,68,33.9,,,O=C(COCC1CC1)N1CCCc2ncccc21
,9.68,527,,,,Cc1nc(C2CCN(c3ccc(F)cc3C#N)CC2)no1
0.497,191,2320,15.5,,,COc1ccc(C)cc1NC(=O)CN1CCc2ccccc2C1
0.471,104,465,30.2,,,Cc1ccc(C(=O)C(=O)NC2CCCC2)cc1
6.74,109,943,,,,CCOc1ccc2[nH]c(C(=O)N3CC[C@@](O)(CC(C)C)[C@@H](Oc4ccc(F)cc4)C3)c(C)c2c1
0.45,,,0.22,,,c1ccc(Cc2ccccc2-c2nnc(-c3cccnc3)o2)cc1
33.7,206,1460,61.7,,,CNC(=O)c1sc2ncccc2c1[C@H]1CC[C@H](CNC(=O)CCc2ccccc2)CC1
0.963,26.7,109,58.6,,,O=C1CCCN1c1ccc(CN2CCC(c3noc4cc(F)ccc34)CC2)cc1
16.4,172,578,,,,Cc1cc(C(F)(F)F)nc(CCNC(=O)N(C)Cc2c(C)noc2C)n1
0.605,214,2150,57.9,,,Cc1ccc(C)c(S(=O)(=O)N2CCCN(C3CCC3)CC2)c1
0.531,13,734,,,,C=CCNc1ncc(-c2cnccn2)c(C2CC2)n1
2.33,187,1590,10.1,,,Cn1c(CNC(=O)Cc2cccc3ccccc23)nc2ccccc21
,82.2,216,,,,Nc1ccc(Nc2ncc3cnn(C4CCCCCC4)c3n2)cn1
0.926,≤ 4.74,94.4,38.2,,,Cc1noc(CCNc2ncnc3ccccc23)n1
0.666,19.3,308,20.2,,,Cc1ccc2nc(C)c(C(=O)NOCc3ccccc3)cc2c1
1.39,≤ 4.74,60.3,37.9,,,N#Cc1ccc(CCC(=O)Nc2ccncc2)cc1
35.2,13.8,655,,,,COc1ccc2cc(C(=O)NCc3nnc4n3CCCCC4)ccc2c1
,14.7,399,4.59,,,c1ccc(-c2ccc(Cn3ccnc3-c3cc4n(n3)CCCNC4)cc2)cc1

MDR1-MDCK efflux ratio,"intrinsic clearance, human liver microsomes [mL/min/kg]","intrinsic clearance, rat liver microsomes [mL/min/kg]",aqueous solubility [µg/mL],"fraction unbound, human plasma","fraction unbound, rat plasma",SMILES
,197,1070,17.1,,,Cc1cccc(NC(=O)c2noc3c2CCCC3)n1
0.58,44.7,58.1,34.7,,,CNC(=O)c1ccc(N2CCCC2)nc1
2.37,5.78,151,63.1,,,O=C(c1cccs1)N1C[C@@H]2CCCN(C(=O)c3cccs3)[C@@H]2C1
2.03,230,1610,,,,CC1CCC(N(Cc2nnc(C3CCC3)o2)C2CCC(O)CC2)CC1 (stereo not given)
,13.4,34.8,,,,Cc1nc(C)c(C(=O)Nc2ccc3ncccc3c2)o1
12,19.6,126,,,,CN1CCCn2c1cc(OCc1cc(F)c(Oc3ccc(C(F)(F)F)nc3)c(F)c1)nc2=O
0.503,≤ 4.74,≤ 10.7,4.91,,,Cn1c(CNc2ccc(C(=N)N)cc2)nc2cc(C(=O)N(CCC(=O)O)c3ccccn3)ccc21
0.543,90.2,2510,47.4,,,Cc1nc(COc2ccc(F)cc2)sc1C(=O)N1CCC(C)CC1
0.641,94.9,1180,33.6,,,CN(Cc1cscn1)c1nc2c(cc1C#N)CCC2
8.41,6.78,40.2,50.5,,,Cc1cc(C(=O)Nc2c(C)nn(C(C)C)c2C)c2ccc(F)cc2n1
26.7,≤ 4.74,286,,,,O=C(CC[C@@H]1CCCN2CCCC[C@H]12)NCc1cnc2c(c1)CCC2
40.1,≤ 4.74,100,40.5,,,Cc1ccc(-c2ccccc2-c2nc3c(cnn3C3CCN(C)CC3)[nH]2)o1
2.47,12,260,45.7,,,CCn1ccc2cc(C(=O)N3CCN(c4ccc(C)cc4)C(=O)C3)ccc21
,≤ 4.74,479,,,,Cc1ccc(C(=O)N(C)Cc2ccccn2)c(O)c1
0.592,≤ 4.74,11.7,65.2,,,O=C(NC1CC1)c1cccnc1Oc1ccccc1
0.766,12.4,478,,,,Cc1cc(N(CCO)CCCO)ncc1Br
1.96,29,728,,,,OCc1nnc(SCCSC2CCCCC2)n1C1CC1
0.723,36.7,957,,,,Cc1cc(C(=O)N2CCC(C(=O)c3ccnn3C)CC2)sc1C

SMILES,MDR1-MDCK efflux ratio,"intrinsic clearance, human liver microsomes [mL/min/kg]","intrinsic clearance, rat liver microsomes [mL/min/kg]",aqueous solubility [µg/mL],"fraction unbound, human plasma","fraction unbound, rat plasma"
O=c1[nH]c2ccccc2n1C1CCN(Cc2nnc(-c3cc4c(s3)CCCC4)o2)CC1,,51.8,1090,2.45,,
